Data: patent US20230172914A1, “BIOMARKER-BASED THERAPEUTIC COMPOSITION” (WELLMARKER BIO CO., LTD., priority 2019, published 2023)

Key:
[1] = test system: colon cancer patient-derived cell line expressing active RON; experiment: Cell death in colon cancer patient-derived cell line expressing active RON (immunofluorescence); format: cell-based, human; conditions: 5 ug, 48 hours, KRAS normal
Procedure: (§1) The following condition and methods were used to perform the present experiment. […] Then, the respective cell lines were seeded at 5×10^5 cells onto 24-well plates, in which one sterile 12 mmΦ microscope cover glass was placed on each well, and incubated. The respective colon cancer patient-derived cell lines under incubation were subjected to treatment with Example 18 and Comparative Example 1, respectively, at 5 ug, and then incubated for 48 hours. Each incubated plate was washed twice with PBS, and then fixed with 100% Me-OH at room temperature for 5 minutes. The Me-OH was removed, and washing with PBS was performed three times for 5 minutes each. Then, 100 ul of 0.1% Triton X-100 (in PBS) was dispensed thereinto and permeabilization was allowed to occur for 5 minutes. Washing with PBS was performed three times for 5 minutes each, and then PBS was added thereto to prevent drying. Parafilm was attached to the 24-well plate cover, and then PBS-T (PBS+0.1% Tween 20) containing 3% BSA was dropped by 20 μl onto the parafilm. […] Then, washing with PBS-T (PBS+0.1% Tween 20) was performed twice, and a fluorescence microscope was used to identify the staining. […] Then, the cover glass was placed thereon, and a fluorescence microscope was used to take a fluorescence image.

KM12C (RONΔ160) = experiment: MTS assay KM12C (Experimental Example 6); format: cell-based; conditions: Homo sapiens, 72 hours
Procedure: In MTS assay for Example 18 and Comparative Example 1, KM12C cell line was seeded at 1,000 cells per well into 96-well plates. After 24 hours, the cells were treated with various concentrations (0.000001 uM to 10 uM) of Example 18 and Comparative Example 1 in 100 ul of 10% FBS-MEM medium (Welgene) per well. Subsequently, the cells were incubated for 72 hours. Then, 20 μl of MTS solution (Promega) was added thereto, and incubation was performed for 2 hours. Then, the absorbance was measured at 490 nm. The IC50 values for Example 18 and Comparative Example 1 were calculated using GraphPad Prism™ 5 to investigate cytotoxicity.

[2] = test system: colon cancer patient-derived cell line in which RON is not expressed; experiment: Cell death in colon cancer patient-derived cell line, active RON negative (immunofluorescence); format: cell-based, human; conditions: 5 ug, 48 hours, KRAS normal
Procedure: as §1

RON mutant (Δ160) = target: T1, RON mutant (Δ160) (Homo sapiens, UniProt Q04912); experiment: Kinase assay for RON mutant Δ160 in transfected Colo320HSR (immunoprecipitation, Western blotting); format: cell-based; conditions: Colo320HSR transfected with RONΔ160, 2 hours of drug treatment
T1 construct: expressed in transfected cells; host or cells: Colo320HSR (RON-negative colon cancer cell line)
T1 sequence (Q04912 25-1294 isoform Q04912-7 limits assumed): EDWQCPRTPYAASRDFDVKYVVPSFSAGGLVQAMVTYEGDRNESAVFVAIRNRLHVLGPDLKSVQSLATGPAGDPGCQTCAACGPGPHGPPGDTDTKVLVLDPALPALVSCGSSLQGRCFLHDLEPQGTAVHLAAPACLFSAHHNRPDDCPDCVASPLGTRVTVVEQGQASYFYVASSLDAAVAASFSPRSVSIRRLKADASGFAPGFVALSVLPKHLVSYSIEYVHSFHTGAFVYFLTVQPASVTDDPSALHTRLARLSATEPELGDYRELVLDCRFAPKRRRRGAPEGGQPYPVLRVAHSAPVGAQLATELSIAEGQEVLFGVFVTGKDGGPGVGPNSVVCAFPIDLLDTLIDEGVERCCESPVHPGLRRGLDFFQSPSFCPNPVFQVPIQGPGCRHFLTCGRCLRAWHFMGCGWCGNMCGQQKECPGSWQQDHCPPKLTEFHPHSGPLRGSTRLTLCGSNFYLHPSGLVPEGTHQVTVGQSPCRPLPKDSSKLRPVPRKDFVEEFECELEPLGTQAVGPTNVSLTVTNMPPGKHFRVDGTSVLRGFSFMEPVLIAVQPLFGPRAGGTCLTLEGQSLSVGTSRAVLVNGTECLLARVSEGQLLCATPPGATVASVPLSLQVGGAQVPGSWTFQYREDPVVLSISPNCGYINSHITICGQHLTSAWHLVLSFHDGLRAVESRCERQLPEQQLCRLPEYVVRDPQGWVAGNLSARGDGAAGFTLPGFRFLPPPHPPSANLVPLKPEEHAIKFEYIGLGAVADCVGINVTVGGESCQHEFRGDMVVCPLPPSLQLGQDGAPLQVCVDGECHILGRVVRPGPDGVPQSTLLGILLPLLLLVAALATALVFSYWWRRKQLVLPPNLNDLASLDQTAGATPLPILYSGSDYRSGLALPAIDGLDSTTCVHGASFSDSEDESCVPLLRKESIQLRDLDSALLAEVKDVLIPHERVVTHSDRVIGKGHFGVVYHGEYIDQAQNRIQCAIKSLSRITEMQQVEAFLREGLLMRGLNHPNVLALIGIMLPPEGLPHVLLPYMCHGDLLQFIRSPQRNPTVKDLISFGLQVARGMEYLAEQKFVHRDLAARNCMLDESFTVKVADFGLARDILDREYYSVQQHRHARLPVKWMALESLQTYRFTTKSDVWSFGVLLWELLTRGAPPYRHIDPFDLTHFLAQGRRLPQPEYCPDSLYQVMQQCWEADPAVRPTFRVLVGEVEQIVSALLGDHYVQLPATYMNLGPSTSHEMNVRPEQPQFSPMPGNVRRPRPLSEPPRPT
T1 sequence (Q04912 25-304 partner limits assumed): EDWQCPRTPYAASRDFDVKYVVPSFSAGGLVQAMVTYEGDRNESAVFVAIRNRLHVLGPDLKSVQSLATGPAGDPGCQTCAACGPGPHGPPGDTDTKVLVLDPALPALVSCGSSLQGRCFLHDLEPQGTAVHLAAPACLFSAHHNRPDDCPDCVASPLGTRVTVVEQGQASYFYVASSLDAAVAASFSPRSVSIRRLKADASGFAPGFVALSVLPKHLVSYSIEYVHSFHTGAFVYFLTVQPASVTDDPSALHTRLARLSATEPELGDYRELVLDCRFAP
Procedure: As a way capable of replacing RON mutant, each of the mutants (Δ160, Δ155) was transfected into Colo320HSR, a RON-negative cell line, and the cell line was subjected to treatment with Example 18 or Comparative Example 1 at respective concentrations. Then, it was checked, through immunoprecipitation and Western blotting, whether expression of active RON decreases. The detailed method is as follows. The RON-negative Colo320SHR colon cancer cell line was transfected with 12 ug of each of RONΔ160 and RON Δ155 using lipofectamine 2000 (Invitrogen, cat #11668-019). For the same transfection efficiency, after 24 hours, the transformed strains were dispensed into a 60-mm dish. 48 hours after transfection, treatment with drugs of Comparative Example 1 and Example 18 was performed, respectively, in a dose-dependent manner. After 2 hours of drug treatment, the cells were collected and washed with PBS. Then, the washed cells were lysed with RIPA Lysis Buffer (T&I, cat #BRI-9001).
Protein concentrations were quantified using the Bradford (BioRad, cat #5000205) method. […]
Electrophoresis was performed using SDS-PAGE, and then proteins were transferred to PVDF membrane. […] The developed film was analyzed with densitometry using Image-J, and then IC50 was calculated using Graphpad Prism (GraphPad Software, Inc.).

CCOc1ccn(-c2ccc(F)cc2)c(=O)c1C(=O)Nc1ccc(Oc2ccnc3cc(-c4ccc(CN5CCOCC5)cn4)sc23)c(F)c1.Cl [Example 18, 4-ethoxy-N-[3-fluoro-4-({2-[5-(morpholinomethyl)pyridin-2-yl]thieno[3,2-b]pyridine-7-yl}oxy)phenyl]-1-(4-fluorophenyl)-2-oxo-1,2-dihydropyridine-3-carboxamide hydrochloride]
cell death-inducing efficacy (cleaved caspase 3 immunofluorescence) [1]: exhibits cell death-inducing efficacy | IC50 (KM12C (RONΔ160)): 6.9 nM | reactivity to drug treatment (cell death) [2]: no reactivity | inhibition of RON activity (degree of active RON) (RON mutant (Δ160)): high inhibition efficacy as compared with Comparative Example 1
